Assay results reported in BindingDB's records for doi:10.1002/cbic.201402673 (University of Groningen, 2015).

biological target: T1, Thiamine transporter ThiT (Lactococcus lactis subsp. cremoris (strain MG1363), UniProt A2RI47); test: Intrinsic-Fluorescence Titration
T1 sequence (A2RI47 whole entry): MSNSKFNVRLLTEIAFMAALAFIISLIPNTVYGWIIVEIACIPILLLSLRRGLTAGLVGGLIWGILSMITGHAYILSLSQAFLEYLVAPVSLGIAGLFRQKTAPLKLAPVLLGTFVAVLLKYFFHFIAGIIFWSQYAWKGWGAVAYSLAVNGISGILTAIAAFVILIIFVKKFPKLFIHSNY
Method: Purified ThiT was diluted in buffer E to a concentration of ~50 nM in a final volume of 800 µL. The substrates were added in 1 µL steps. Using an excitation wavelength of 280 nm, emission was measured at 350 nm and 25 °C. After each addition of substrate, 10 s were allowed for equilibration and mixing, and the signals were averaged over 15 s.

Row | SMILES | Kd [nM]
1 | Cc1ncc(Cc2csc(CCO)c2C)c(N)n1 [3-Deazathiamine] | 4.23
2 | Cc1ncc(Cc2cccc(CCO)c2)c(N)n1 [2-(3-((4-Amino-2-methylpyrimidin-5-yl)methyl)phenyl)ethanol (8)] | 266
3 | Cc1ncc(Cc2csc(C=O)c2C)c(N)n1 [4-((4-Amino-2-methylpyrimidin-5-yl)methyl)-3-methylthiophene-2-carbaldehyde (9)] | 7.44

More lines, in order of falling Kd, values ahead:

Row | Kd [nM] | SMILES
4 | 528 | Cc1ncc(Cc2cccc(CO)c2)c(N)n1 [(3-((4-Amino-2-methylpyrimidin-5-yl)methyl)phenyl)methanol (6)]
5 | 5.21 | Cc1ncc(Cc2csc(CO)c2C)c(N)n1 [(4-((4-Amino-2-methylpyrimidin-5-yl)methyl)-3-methylthiophen-2-yl)methanol (7)]
